A value given as a limit tells only on which side of the number the result lay.

This test relates to human mammary cancer-derived KPL-4 cells. In words: Cell growth inhibition test with KPL-4 cells (WST-1). The test is classed as cell-based. The settings on record: KPL4, 72 hours, read-out: 50% growth inhibition concentration (GI50). As to the method: In a 96-well plate (Nunc), human mammary cancer-derived KPL-4 cells were sown in an amount of 2000 cells/well, and pre-incubated in 10% fetal calf serum (FCS)-containing Dulbecco Modified Eagle Medium (DMEM) (incubation medium) in a 5% carbon dioxide incubator at 37° C. for 24 hours. A dimethylsulfoxide (DMSO) solution of a test compound controlled at 10 mmol/L was stepwise diluted with the incubation medium, and added to each well in a total amount of 100 μL/well, and incubated in the 5% carbon dioxide incubator at 37° C. for 72 hours. After the incubation, WST-1 {4-[3-(4-Iodophenyl)-2-(4-nitrophenyl)-2H-5-tetrazolio]-1,3-benzene disulfonate}-labeled mixture (Rosh Diagnostic) diluted 2-fold with the incubation medium was added thereto in an amount of 20 μL/well, and incubated in the 5% carbon dioxide incubator at 37° C. for 1 hour. Using a microplate spectrophotometer (Biorad's Model 550), the absorbance at 450 nm and 655 nm of each well was measured. The cell growth inhibition activity of the test compound was indicated by the 50% growth inhibition concentration (GI50) thereof. A method of calculating GI50 is described. The absorbance at 655 nm of each well was subtracted from the absorbance at 450 nm thereof to give a value (absorbance difference). The absorbance difference obtained with the cells without being treated with the test compound was taken as 100%, and this was compared with the absorbance difference obtained with the cells treated with the test compound to give the concentration of the compound for 50% cell growth inhibition, and this is referred to as GI50.
Consider `COC(=O)Cc1c(I)c(O)cc(O)c1-c1ccccc1` [Compound 13, Methyl 3,5-dihydroxy-2-iodo-6-phenylphenylacetate], for which the GI50 is at most 50 µM.
For `COCOCCc1c(Br)c(O)cc(O)c1-c1ccccc1` [Compound 111, 6-Bromo-5-[2-(methoxymethoxy)ethyl]-4-phenylbenzene-1,3-diol] the value was at most 50 µM.
For `COC(=O)CCc1c(Br)c(O)cc(O)c1-c1ccccc1` [Compound 87, Methyl 3-(2-bromo-3,5-dihydroxy-6-phenylphenyl)propanoate] the value was at most 50 µM; for `CCc1c(O)cc(O)c(-c2ccccc2)c1CC(O)CC(O)CO` (stereo not drawn) [Compound 177, 6-Ethyl-4-phenyl-5-(2,4,5-trihydroxypentyl)benzene-1,3-diol], at most 50 µM.
To `OCCOCCc1c(Br)c(O)cc(O)c1-c1ccccc1` [Compound 110, 6-Bromo-5-[2-(2-hydroxyethoxy)ethyl]-4-phenylbenzene-1,3-diol] belongs at most 50 µM; to `CCc1c(O)cc(O)c(-c2cccc(OCc3ccccn3)c2)c1CCOCC(O)CO` (stereo not drawn) [Compound 190, 5-[2-(2,3-Dihydroxypropoxy)ethyl]-6-ethyl-4-[3-(pyridin-2-ylmethyloxy)phenyl]benzene-1,3-diol], at most 50 µM.
In the case of `CC(=O)CCc1c(Br)c(O)cc(O)c1-c1ccccc1` [Compound 114, 4-(2-Bromo-3,5-dihydroxy-6-phenylphenyl)butan-2-one], the GI50 was at most 50 µM.
To `CCc1c(O)cc(O)c(-c2n[nH]c3cc(OC)ccc23)c1CCOCC(O)CO` (stereo not drawn) [Compound 330, 5-[2-(2,3-Dihydroxypropoxy)ethyl]-6-ethyl-4-(6-methoxy-1H-indazol-3-yl)benzene-1,3-diol] belongs at most 50 µM.
To `CCc1cc(-c2nc3ccccc3n2-c2ccccc2)c(O)cc1O` [Compound 279, 6-Ethyl-4-(1-phenylbenzimidazol-2-yl)benzene-1,3-diol] belongs at most 50 µM; to `COC(=O)Cc1cc(O)cc(O)c1-c1cccc([N+](=O)[O-])c1` [Compound 77, Methyl 3,5-dihydroxy-2-(3-nitrophenyl)phenylacetate], at most 50 µM.
For `COc1ccccc1N1CCN(C(=O)Cc2c(Br)c(O)cc(O)c2-c2ccccc2)CC1` [Compound 88, 2-(2-Bromo-3,5-dihydroxy-6-phenylphenyl)-1-[4-(2-methoxyphenyl)piperazin-1-yl]ethanone] the value was at most 50 µM.
As to `COCCOCc1c(Br)c(O)cc(O)c1-c1ccccc1` [Compound 71, 6-Bromo-5-[(2-methoxyethoxy)methyl]-4-phenylbenzene-1,3-diol], the GI50 is at most 50 µM.
To `CCc1cc(-c2n[nH]c3ccc([N+](=O)[O-])cc23)c(O)cc1O` [Compound 277, 6-Ethyl-4-(5-nitro-1H-indazol-3-yl)benzene-1,3-diol] belongs at most 50 µM; to `Oc1cc(O)c(-c2ccccc2)c(COCC2CCCO2)c1Br` (stereo not drawn) [Compound 85, 6-Bromo-5-[(oxolan-2-ylmethoxy)methyl]-4-phenylbenzene-1,3-diol], at most 50 µM; to `N#Cc1ccccc1N1CCN(C(=O)Cc2c(Br)c(O)cc(O)c2-c2ccccc2)CC1` [Compound 38, 2-(2-Bromo-3,5-dihydroxy-6-phenylphenyl)-1-[4-(2-cyanophenyl)piperazin-1-yl]ethanone], at most 50 µM.
To `COCCc1c(C(C)=O)c(O)cc(O)c1-c1cccc(C(=O)OC)c1` [Compound 119, Methyl 3-[5-acetyl-2,4-dihydroxy-6-(2-methoxyethyl)phenyl]benzoate] belongs at most 50 µM; to `CCOc1cccc(-c2c(O)cc(O)c(CC)c2CCOC)c1` [Compound 133, 4-(3-Ethoxyphenyl)-6-ethyl-5-(2-methoxyethyl)benzene-1,3-diol], at most 50 µM.
For `CCc1c(O)cc(O)c(-c2ccccc2)c1CCC(O)C(O)CO` (stereo not drawn) [Compound 181, 6-Ethyl-4-phenyl-5-(3,4,5-trihydroxypentyl)benzene-1,3-diol] the value was at most 50 µM; for `COCCNC(=O)Cc1c(Br)c(O)cc(O)c1-c1ccccc1` [Compound 23, 2-(2-Bromo-3,5-dihydroxy-6-phenylphenyl)-N-(2-methoxyethyl)acetamide], at most 50 µM.
With `O=C(Cc1c(Br)c(O)cc(O)c1-c1ccccc1)NCc1ccncc1` [Compound 54, 2-(2-Bromo-3,5-dihydroxy-6-phenylphenyl)-N-(pyridin-4-ylmethyl)acetamide], the GI50 was at most 50 µM.
Turning to `COC(=O)Cc1cc(O)cc(O)c1-c1ccccc1` [Compound 1, Methyl 3,5-dihydroxy-2-phenylphenylacetate], the GI50 is at most 50 µM.
To `O=C(c1ccccc1)c1c(Br)c(O)cc(O)c1-c1ccccc1` [Compound 58, 2-Bromo-3,5-dihydroxy-6-phenylphenyl phenyl ketone] belongs at most 50 µM; to `CCc1c(OC)cc(O)c(-c2ccccc2)c1CC(=O)OC` [Compound 126, Methyl 6-ethyl-3-hydroxy-5-methoxy-2-phenylphenylacetate], at most 50 µM; to `CC(O)CCc1c(Br)c(O)cc(O)c1-c1ccccc1` (stereo not drawn) [Compound 115, 5-(3-Hydroxybutyl)-6-bromo-4-phenylbenzene-1,3-diol], at most 50 µM.
To `O=C(Cc1c(Br)c(O)cc(O)c1-c1ccccc1)NC1CCN(Cc2ccccc2)CC1` [Compound 18, N-(1-benzylpiperidin-4-yl)-2-(2-bromo-3,5-dihydroxy-6-phenylphenyl)acetamide] belongs at most 50 µM; to `CCc1c(O)cc(O)c(-c2ccccc2)c1CCOCCCOC` [Compound 176, 6-Ethyl-5-[2-(3-methoxypropoxy)ethyl]-4-phenylbenzene-1,3-diol], at most 50 µM.
To `CCOC(=O)CCc1ccc(-c2c(O)cc(O)cc2COCc2ccccc2)o1` [Compound 236, Ethyl 3-{5-[6-(benzyloxymethyl)-2,4-dihydroxyphenyl]furan-2-yl}propanoate] belongs at most 50 µM; to `CCc1c(O)cc(O)c(-c2ccccc2)c1CCOCC(N)=O` [Compound 155, 2-[2-(2-Ethyl-3,5-dihydroxy-6-phenylphenyl)ethoxy]acetamide], at most 50 µM.
Consider `COCCNCc1c(Br)c(O)cc(O)c1-c1ccccc1` [Compound 103, 6-Bromo-5-[N-(2-methoxyethyl)aminomethyl]-4-phenylbenzene-1,3-diol], for which the GI50 is at most 50 µM.
For `COC(=O)Cc1c(Br)c(O)cc(O)c1-c1ccccc1` [Compound 10, Methyl 2-bromo-3,5-dihydroxy-6-phenylphenylacetate], the GI50 is at most 50 µM.
To `COC(=O)Cc1cc(O)cc(O)c1-c1ccc(OC)cc1` [Compound 82, Methyl 3,5-dihydroxy-2-(4-methoxyphenyl)phenylacetate] belongs at most 50 µM; to `COc1cccc(-c2c(O)cc(O)c(Br)c2CC(C)=NO)c1` [Compound 107, 6-Bromo-5-[2-(hydroxyimino)propyl]-4-(3-methoxyphenyl)benzene-1,3-diol], at most 50 µM.
To `COCCc1c(-c2ccccc2)c(O)cc(O)c1C(C)C` [Compound 151, 6-Isopropyl-5-(2-methoxyethyl)-4-phenylbenzene-1,3-diol] belongs at most 50 µM.
To `COCCCc1c(Br)c(O)cc(O)c1-c1ccccc1` [Compound 97, 6-Bromo-5-(3-methoxypropyl)-4-phenylbenzene-1,3-diol] belongs at most 50 µM; to `COCCc1c(C(C)=O)c(O)cc(O)c1-c1cccc(-c2ccccc2)c1` [Compound 120, 1-[2,4-Dihydroxy-6-(2-methoxyethyl)-5-(3-phenylphenyl)phenyl]ethanone], at most 50 µM.
Regarding `CCc1c(O)cc(O)c(-c2ccccc2)c1CCCOCC(=O)NCCOC` [Compound 168, 2-[3-(2-Ethyl-3,5-dihydroxy-6-phenylphenyl)propoxy]-N-(2-methoxyethyl)acetamide], the GI50 is at most 50 µM.
For `CCc1c(O)cc(O)c(-c2cccc(OC)c2)c1CC(=O)OC` [Compound 142, Methyl 2-ethyl-3,5-dihydroxy-6-(3-methoxyphenyl)phenylacetate] the value was at most 50 µM; for `COCCOCCOCc1c(Br)c(O)cc(O)c1-c1ccccc1` [Compound 72, 6-Bromo-5-[2-(2-methoxyethoxy)ethoxymethyl]-4-phenylbenzene-1,3-diol], at most 50 µM.
To `COC(=O)Cc1c(C=O)c(O)cc(O)c1-c1ccccc1` [Compound 55, Methyl 2-formyl-3,5-dihydroxy-6-phenylphenylacetate] belongs at most 50 µM; to `CN(C)CCc1c(Br)c(O)cc(O)c1-c1ccccc1` [Compound 99, 6-Bromo-5-[2-(N,N-dimethylamino)ethyl]-4-phenylbenzene-1,3-diol], at most 50 µM.
To `N#Cc1cccnc1N1CCN(C(=O)Cc2c(Br)c(O)cc(O)c2-c2ccccc2)CC1` [Compound 90, 2-(2-Bromo-3,5-dihydroxy-6-phenylphenyl)-1-[4-(3-cyanopyridin-2-yl)piperazin-1-yl]ethanone] belongs at most 50 µM.
Turning to `CCc1c(O)cc(O)c(-c2cccc(CCC(C)O)c2)c1CCOCCOC` (stereo not drawn) [Compound 154, 6-Ethyl-4-[3-(3-hydroxybutyl)phenyl]-5-[2-(2-methoxyethoxy)ethyl]benzene-1,3-diol], the GI50 was at most 50 µM.

For the origin of these results see patent US7538241B2, “Hsp90 family protein inhibitors” (Kyowa Hakko Kogyo Co., Ltd., priority 2003, dated 2009).
